pEC50, pKd: −log10 of the molar value. Counter-ions that a name gives are not always drawn.
Columns and labels:
[1] = target: T1, pirin (Homo sapiens, UniProt O00625); test: Surface plasmon resonance on immobilized pirin (Biacore); assay type: binding; design: hexahistidine tag (N); strep tag (C); host or cells: E. coli; conditions: SPR, pirin on CM7 chip, PBS with 2% DMSO and 0.05% tween 20
T1 sequence (O00625 1-290): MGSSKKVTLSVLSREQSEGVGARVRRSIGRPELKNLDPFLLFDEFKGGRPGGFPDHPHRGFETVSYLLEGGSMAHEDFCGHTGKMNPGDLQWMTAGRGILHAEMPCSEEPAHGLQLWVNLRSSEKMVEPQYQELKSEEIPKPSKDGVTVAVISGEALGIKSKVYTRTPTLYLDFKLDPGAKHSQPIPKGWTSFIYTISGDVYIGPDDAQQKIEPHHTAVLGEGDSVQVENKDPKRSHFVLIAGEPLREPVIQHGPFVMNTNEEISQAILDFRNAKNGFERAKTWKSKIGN
Description: A control chip was also prepared under identical condition but without including pirin in the reaction. […] A series of increasing concentrations of compound, either the control ThPA or a compound of the present invention is then applied to the pirin modified CM7 chip in phosphate buffered saline containing 2% DMSO and 0.05% tween 20 and sensorgrams are recorded covering the association, equilibrium and dissociation phases of the response.

[2] = test system: EGR1 promoter; test: EGR1 reporter assay (luciferase) in genomically engineered HeLa cell line; assay type: cell-based; conditions: Homo sapiens; EGR1 reporter HeLa cells, luciferase activity after 24 hours with compound
Outline: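 HeLa cells with eGFP-P2A-luciferase knocked in by CRISPR behind the endogenous EGR1 promoter, seeded 2000/well in DMEM with 10% FCS for 24 h. Cells treated 24 h with an 11-point 1:3 series from 100 μM initial DMSO dilution. Readout: luciferase bioluminescence.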

[3] = test system: patient derived CLL samples; test: Growth inhibition of cells derived from patients with CLL; assay type: cell-based; conditions: three days incubation, ATPlite
Description: HeLa, A549 and HCT116 cells were grown in high-glucose Dulbecco's Modified Eagle's Medium (DMEM, Sigma)+10% FBS+1% penicillin and streptomycin+1% L-glutamine, at 37° C. with 5% CO2 and 95% humidity. Cytotoxic screening of the ProQinase panel of 100 cell-lines was performed by ProQinase (Freiburg, Germany). Patient derived CLL isolates were prepared and screened as described by Dietrich et al. (S. Dietrich et al., J Clin Invest, 2018, 128(1), 427-445). Cell viability was determined after 48 hours using the ATP-based CellTiter Glo assay (Promega). Luminescence was measured with a Tecan Infinite F200 Microplate Reader (Tecan Group AG) and with an integration time of 0.2 seconds per well.
The response of 97 tumour samples derived from patients with CLL was investigated. All samples tumor cells were obtained from whole blood, subjected to Ficoll-Isopaque density centrifugation. CD19+B and CD3+ T cells were isolated by positive magnetic cell separation (Miltenyi Biotec). Sorted cells were checked for purity by fluorescence-activated cell sorting (FACS) with CD19/CD20 for healthy control samples and CD19/CD20/CD5 for CLL samples (BD Biosciences). Following sorting, all samples with a CD19/CD20/CD5 purity <98% were subjected to additional sorting, and the average final purity of all sorted samples was >99%. CLL samples with >[…] were not subject to purification.
Cells are incubated for three days with an eight-point three-fold titration series of the test compound from an initial concentration of 30 μM (2000 cells per well in a volume of 50 μl). Cellular viability is estimated by the addition of 25 μL of ATPlite (Perkin Elmer) with the resulting luminescence measured using an EnVision Xcite plate reader (Perkin Elmer).
In addition, the growth inhibitory response of a selection of 27 patient derived CLL isolates (S. Dietrich et al., J Clin Invest, 2018, 128(1), 427-445) against the compounds of examples 64 and 85 was evaluated using the procedure as described above.

[4] = target: T1, pirin; test: Nano differential scanning fluorimetry (NanoDSF), thermal melting of pirin; conditions: 10 μM pirin in PBS, 20 μM test compound
Description: NanoDSF is an advanced Differential Scanning Fluorimetry method for measuring protein stability using intrinsic tryptophan or tyrosine fluorescence. The fluorescence of the tryptophans and tyrosines in a protein is strongly dependent on their close surroundings. Changes in protein structure typically affect both the intensity and the emission wavelength especially of tryptophan fluorescence. By measuring fluorescence intensity at 330 nm and 350 nm, the change in fluorescence intensity and the shift of the fluorescence maximum upon unfolding can be used to detect thermal melting of the protein. Proteins are stabilized when associated with ligands and show a shift in their melting temperatures. NanoDSF has the advantages of being label free and observing the protein in solution.
A 10 μM solution of pirin in phosphate buffered saline, with or without 20 μM test compound, is subject to thermal denaturation under fluorescence monitoring using a Prometheus NT.48 instrument of NanoTemper Technologies. Unliganded pirin has a complex biphasic melting curve. […] If the test compound is a ligand to pirin, it adopts a single thermal transition some 10° C. above that of apopirin.

Row | Compound | pEC50 [2] | other results
1 | Cc1cccc2c(CC(=O)Nc3ncc(C(F)(F)F)s3)coc12 [Example 72, 2-(7-Methylbenzofuran-3-yl)-N-[5-(trifluoromethyl)thiazol-2-yl]acetamide] | 5.00 to 8.00 | pKd [1]: 5.80; patient samples killed with an EC50 less than 10 μM ([3]; 45 of 97 samples): 46%; patient derived CLL samples with cytotoxic effect ([3]; 90 of 97 samples): 93%
2 | Cc1cc2occ(CC(=O)Nc3nc(-c4ccc(CN)cc4)cs3)c2cc1C [Example 101, N-[4-[4-(Aminomethyl)phenyl]thiazol-2-yl]-2-(5,6-dimethylbenzofuran-3-yl)acetamide, hydrochloride salt] | 5.00 to 8.00 | increase in the Tm of melting [4]: approximately 11 °C
3 | COC(=O)c1cnc(NC(=O)Cc2coc3c(C)c(C)ccc23)s1 [Example 47, Methyl 2-[[2-(6,7-dimethylbenzofuran-3-yl)acetyl]amino]thiazole-5-carboxylate] | 5.00 to 8.00 | 
4 | Cc1cnc(NC(=O)Cc2coc3cc4c(cc23)CCC4)o1 [Example 17, 2-(6,7-Dihydro-5H-cyclopenta[f]benzofuran-3-yl)-N-(5-methyloxazol-2-yl)acetamide] | 4.00 to 5.00 | 
5 | Cc1ccc2c(CC(=O)Nc3ncc(C(F)(F)F)[nH]3)coc2c1Cl [Example 58, 2-(7-Chloro-6-methyl-benzofuran-3-yl)-N-[5-(trifluoromethyl)-1H-imidazol-2-yl]acetamide] | 5.00 to 8.00 | 
6 | COc1ccc2c(CC(=O)Nc3ncc(C(F)(F)F)s3)coc2c1C [Example 91, 2-(6-Methoxy-7-methyl-benzofuran-3-yl)-N-[5-(trifluoromethyl)thiazol-2-yl]acetamide] | 5.00 to 8.00 | 
7 | Cc1ccc2c(CC(=O)Nc3ncc(C#N)s3)coc2c1Cl [Example 59, 2-(7-Chloro-6-methyl-benzofuran-3-yl)-N-(5-cyano-1H-thiazol-2-yl)acetamide] | 5.00 to 8.00 | 
8 | COCc1cnc(NC(=O)Cc2coc3c(C)c(C)ccc23)s1 [Example 87, 2-(6,7-Dimethylbenzofuran-3-yl)-N-[5-(methoxymethyl)thiazol-2-yl]acetamide] | 5.00 to 8.00 | 
